Assay results taken from ChEMBL document CHEMBL1143017, “Structural assignment of poecillastrins B and C, macrolide lactams from the deep-water Caribbean sponge Poecillastra species” (J Nat Prod, 2007).

Experiment: Cytotoxicity against human LOX cells
Format: cell-based

Question: With COC1/C=C/C=C/CC/C=C/C=C/C(=O)NC(C(O)C(=O)O)C(=O)OC(C(NC(=O)C(C)C(O)CCC(C)C(O)/C(C)=C/C(C)C(O)C(CC(C)C)NC(=O)/C=C/C(C)(C)C(=O)C(C)C(O)C(C)C)C(C)O)C(C)C(O)C/C=C(\C)C(O)C(C)/C=C(\C)C(O)C(C)C(O)CC2CC(C)CC1O2 (configuration not stated) [POECILLASTRIN C] as the molecule, how does the IC50 read?
Answer: Its IC50 is less than 1 µg/mL.

Question: For COC1/C=C/C=C/CC/C=C/C=C/C(=O)NC(C(O)C(=O)O)C(=O)OC(C(NC(=O)C(C)C(O)CCC(C)C(O)/C(C)=C/C(C)(C)C(O)C(CC(C)C)NC(=O)/C=C/C(C)(C)C(=O)C(C)C(O)C(C)C)C(C)O)C(C)C(O)C/C=C(\C)C(O)C(C)/C=C(\C)C(O)C(C)C(O)CC2CC(C)CC1O2 (configuration not stated) [POECILLASTRIN B], which IC50 is on record?
Answer: The IC50 was less than 1 µg/mL.
